Measurements: US9745328B2, “Flap modulators” (JANSSEN PHARMACEUTICA NV, priority 2013, dated 2017)
Like-named read-outs stand apart in the source and are kept apart here.

Key:
[1] = system: leukotriene pathway in human whole blood (LTB4); assay: Human whole blood assay (LTB4 levels after calcium ionophore A23187 stimulation); format: cell-based; details: read-out: Human Whole Blood LTB4 IC50 1:1
Method in brief: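 Heparinised human whole blood diluted 1:1 in RPMI, pre-incubated 15 min at 37° Celsius with compound, then stimulated with A23187 (7 μg/mL) for 30 min at 37° Celsius. Plasma LTB4 measured by immunoassay kit; IC50 from 4-parameter fit; single replicate per plate, at least one healthy donor.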

[2] = molecular target: human FLAP (Homo sapiens (Human), UniProt P20292); assay: FLAP binding assay (HTRF format)
Method in brief: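 Binding values are averages from two separate assay plates, with each sample run in duplicate per plate. Data are expressed as an HTRF ratio.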

[3] = Homo sapiens, Table 6 (additional runs), human whole blood diluted 1:1, A23187 stimulation
[4] = Table 6 (additional runs), human FLAP wild type
[5] = Homo sapiens, human whole blood diluted 1:1, A23187 stimulation, Table 6 (additional runs)
[6] = human FLAP wild type, Table 6 (additional runs)

Sequence of human FLAP (P20292 whole entry): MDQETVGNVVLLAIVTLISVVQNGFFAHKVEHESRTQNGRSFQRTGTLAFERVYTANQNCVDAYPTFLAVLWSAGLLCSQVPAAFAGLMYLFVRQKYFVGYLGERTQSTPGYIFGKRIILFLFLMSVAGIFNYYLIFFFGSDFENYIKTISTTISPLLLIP

| IC50 [1, 5] [nM] | Ki [2, 6] [nM] | SMILES | other results |
| --- | --- | --- | --- |
| – | – | CC(C)N(CCO)S(=O)(=O)c1ccccc1-c1ccc(-c2cnc(N)cn2)c(F)c1 [Example 141, 4′-(5-Aminopyrazin-2-yl)-3′-fluoro-N-(2-hydroxyethyl)-N-(1-methylethyl)biphenyl-2-sulfonamide] | IC50 [1, 3]: 3.3 nM; Ki [2, 4]: 0.7 nM |
| 603 | 30.3 | Nc1cnc(-c2ccc(-c3cccnc3-c3ccccc3)cc2F)cn1 [Example 893, 5-[2-Fluoro-4-(2-phenylpyridin-3-yl)phenyl]pyrazin-2-amine] | – |
| – | – | C[C@@H](NS(=O)(=O)c1ccccc1-c1ccc(-c2cnc(N)cn2)c(F)c1)C(F)(F)F [Example 20, (S)-4′-(5-Aminopyrazin-2-yl)-3′-fluoro-N-[(S)-2,2,2-trifluoro-1-methylethyl]biphenyl-2-sulfonamide] | IC50 ([1]; Table 6 (additional runs), human whole blood diluted 1:1, A23187 stimulation): 8.5 nM; Ki [2, 4]: 0.9 nM |
| 43.7 | 26.6 | CS(=O)(=O)N1CCC(S(=O)(=O)c2ncccc2-c2ccc(-c3cnc(N)cn3)c(F)c2)CC1 [Example 908, 5-[2-Fluoro-4-(2-{[1-(methylsulfonyl)piperidin-4-yl]sulfonyl}pyridin-3-yl)phenyl]pyrazin-2-amine] | – |
| > 1000 | 5.8 | Nc1cnc(-c2ccc(-c3ccccc3OCc3ccc(C(=O)O)cc3)cc2F)cn1 [Example 886, 4-(([4′-(5-Aminopyrazin-2-yl)-3′-fluorobiphenyl-2-yl]oxy}methyl)benzoic acid] | – |
| 15.5 | 1.5 | Nc1cnc(-c2ccc(-c3ccccc3Oc3cc(N)ncn3)cc2F)cn1 [Example 535, 6-{[4′-(5-Aminopyrazin-2′yl)-3′-fluorobiphenyl-2-yl]oxy}pyrimidin-4′-amine] | – |
| 4180 | 89.6 | Nc1cnc(-c2ccc(-c3ccccc3OC(F)(F)F)cc2F)cn1 [Example 475, 5-[3-Fluoro-2′-(trifluoromethoxy)biphenyl-4-yl]pyrazin-2-amine] | – |
| 192 | 96.2 | Nc1ccc(-c2ccccc2-c2ccc(-c3cnc(N)nc3)c(F)c2)cn1 [Example 865, 5-[2′-(6-Aminopyridin-3-yl)-3-fluorobiphenyl-4-yl]pyrimidin-2-amine] | – |
| 4.4 | 4.3 | CC(C)(C)NS(=O)(=O)c1ccccc1-c1ccc(-c2cnc(N)c(N)n2)c(F)c1 [Example 428, N-tert-Butyl-4′-(5,6-diaminopyrazin-2-yl)-3′-fluorobiphenyl-2-sulfonamide] | – |
| 40.8 | 35.1 | CN1CCC(S(=O)(=O)c2ncccc2-c2ccc(-c3cnc(N)cn3)c(F)c2)C1 (stereo not shown) [Example 900, 5-(2-Fluoro-4-{2-[(1-methylpyrrolidin-3-yl)sulfonyl]pyridin-3-yl}phenyl)pyrazin-2-amine] | – |
| 731 | 77.4 | Nc1cnc(-c2ccc(-c3ccc(C(F)(F)F)cc3N)cc2F)cn1 [Example 892, 5-[2′-Amino-3-fluoro-4′-(trifluoromethyl)biphenyl-4-yl]pyrazin-2-amine] | – |
| 371 | 25 | N#CCn1cc(-c2ccccc2-c2ccc(-c3cnc(N)cn3)c(F)c2)cn1 [Example 871, {4-[4′-(5-Aminopyrazin-2-yl)-3′-fluorobiphenyl-2-yl]-1H-pyrazol-1-yl}acetonitrile] | – |
| – | – | Nc1cnc(-c2ccc(-c3ccccc3S(=O)(=O)N[C@H]3c4ccccc4C[C@@H]3O)cc2F)cn1 [Example 158] | IC50 [1, 3]: 1.4 nM; Ki [2, 4]: 0.6 nM |
| 268 | 14.7 | Nc1cnc(-c2ccc(-c3ccccc3S(=O)(=O)c3ccccc3)cc2F)cn1 [Example 477, 5-[3-Fluoro-2′-(phenylsulfonyl)biphenyl-4-yl]pyrazin-2-amine] | – |
| – | – | Nc1cnc(-c2ccc(-c3ccccc3S(=O)(=O)NC[C@H](O)c3ccccc3)cc2F)cn1 [Example 117, (R)-4′-(5-aminopyrazin-2-yl)-3′-fluoro-N-(2-hydroxy-2-phenylethyl)-[1,1′-biphenyl]-2-sulfonamide] | IC50 [1, 3]: 6.6 nM; Ki [2, 4]: 0.7 nM |
| – | – | CN1CCN(S(=O)(=O)c2ccccc2-c2ccc(-c3cnc(N)cn3)c(F)c2)CC1 [Example 54, 5-{3-Fluoro-2′-[(4-methylpiperazin-1-yl)sulfonyl]biphenyl4-yl}pyrazin-2-amine] | IC50 [1, 3]: 41.3 nM; Ki [2, 4]: 24.9 nM |
| 8.8 | 0.5 | Nc1cnc(-c2ccc(-c3ccc(C(F)(F)F)nc3S(=O)(=O)C3CCS(=O)(=O)CC3)cc2F)cn1 [Example 912, 5-(4-{2-[(1,1-Dioxidotetrahydro-2H-thiopyran-4-yl)sulfonyl]-6-(trifluoromethyl)pyridin-3-yl}-2-fluorophenyl)pyrazin-2-amine] | – |
| 68.8 | 167 | Nc1ncc(-c2ncc(-c3ccccc3S(=O)(=O)NCCO)cc2F)cn1 [Example 882, 2-[6-(2-Aminopyrimidin-5-yl)-5-fluoropyridin-3-yl]-N-(2-hydroxyethyl)benzenesulfonamide] | – |
| 1080 | 80.3 | Nc1ncc(-c2ccc(-c3ccccc3-c3cn[nH]c3)cc2F)cn1 [Example 876, 5-[3-Fluoro-2′-(1H-pyrazo-4-yl)biphenyl-4-yl]pyrimidin-2-amine] | – |

| SMILES | IC50 [1, 5] [nM] | Ki [2, 6] [nM] | other results |
| --- | --- | --- | --- |
| Nc1ncc(-c2ccc(-c3ccc(C(F)(F)F)nc3S(=O)(=O)C3CCOCC3)cc2F)cn1 [Example 907, 5-{2-Fluoro-4-[2-(tetrahydro-2H-pyran-4-ylsulfonyl)-6-(trifluoromethyl)pyridin-3-yl]phenyl}pyrimidin-2-amine] | – | 6 | IC50 ([1]; Homo sapiens): 12 nM |
